In publication PMC4537050, “A long pentraxin-3-derived pentapeptide for the therapy of FGF8b-driven steroid hormone-regulated cancers” (Oncotarget, 2015):

What was measured:
[1] = system: FGFR1 phosphorylation in HUVECs; assay: FGFR1 phosphorylation in FGF8b-stimulated HUVECs (immunofluorescence); type: cell-based, human; settings: 30 ng/ml FGF8b, 60 μM peptide
Method: HUVECs were seeded in Ibidi® μ-Slide 8 wells (Ibidi, Martinsried, Germany, EU) at a density of 30000 cells/cm^2, starved in 2.5% FBS for 24 h and stimulated for 20 minutes with 30 ng/ml of FGF8b in the absence or presence of ARPCA or ARPVA. Following stimulation, cells were washed twice in PBS, fixed in cold acetone for 5 minutes and permeabilized with 0.2% Triton-X100 in PBS for 2 minutes at room temperature (RT). After washing in PBS, cells were blocked for 10 minutes at RT in 1% BSA and then incubated with rabbit anti-pFGFR1 or rabbit anti-FGFR1 antibodies (Santa Cruz Biotechnology) for 1 h at RT. After washing in PBS, cells were incubated with AlexaFluor 594-conjugated anti-rabbit antibody (Invitrogen) and DAPI for 30 minutes at RT. Finally, cells were examined under a Zeiss Fluorescence Axiovert 200M microscope (Carl Zeiss).

FGF9 = FGF9 (Homo sapiens, UniProt P31371); assay: SPR analysis of FGF/ARPCA interaction, FGF9; type: binding; settings: immobilized FGF9
HUVEC spheroids = assay: Endothelial cell sprouting assay (HUVEC spheroids in fibrin gel); type: cell-based, human; settings: 60 μM peptide, 24 h
Method: HUVEC spheroid aggregates were prepared in 20% methylcellulose medium, embedded in fibrin gel, and stimulated with FGF8b or VEGF-A (both at 30 ng/ml) plus 5% FBS in the absence or presence of 60 μM ARPCA or ARPVA. Formation of radially growing cell sprouts was observed during the next 24 h, photographed at 200x magnification using an Axiovert 200M microscope (Carl Zeiss, Milan, Italy, EU) and counted.

TRAMP-C2 alginate plugs = assay: Murine s.c. alginate implant assay, TRAMP-C2 cells; type: in vivo, C57BL/6 male mice; settings: i.p. at 100 mg/kg every other day
Method: Eightweek-old athymic Nu/Nu or C57BL/6 male mice were injected s.c. with 450 μl of 3% (w/v) sodium alginate solution (alginic acid dissolved in LPS-free PBS) containing 5×10^6 S115 or 8×10^6 TRAMP-C2 cells, respectively. Mice were treated i.p. with ARPCA or ARPVA (100 mg/kg) on day 7, 9, 11 and 13 after implant. On day 14, alginate gels were harvested, weighted, embedded in OCT-compound and immediately frozen to be processed for histological analysis. For immunofluorescence stainings, sections (5 μm thick) were obtained with a cryostat microtome, air dried and fixed with acetone (for 5 min at 4°C). After blocking with 1% BSA (Bovine Serum Albumin) in PBS for 10 minutes, sections were incubated with primary antibodies, rabbit anti-FGFR1 (Santa Cruz Biotechnology), rabbit anti-phospho FGFR1 (Santa Cruz Biotechnology), Ki67 (Dako, Milano, Italy, EU) or CD31 (BD Biosciences Pharmingen, San Diego, CA, USA). After washing with PBS containing 0.05% Tween 20, sections were incubated with the appropriate Alexa Fluor 488 or Alexa Fluor 594-conjugated secondary antibody (Invitrogen). After mounting in a drop of anti-bleaching mounting medium containing DAPI (Vectashield, Vector Laboratories, Burlingame, CA, USA), sections were examined under a Zeiss Fluorescence Axiovert 200M microscope (Carl Zeiss).

FGF23 = target: T1, FGF23 (Homo sapiens, UniProt Q9GZV9); assay: SPR analysis of ARPCA on immobilized FGF23; type: binding; settings: data not shown
T1 sequence (Q9GZV9 25-251): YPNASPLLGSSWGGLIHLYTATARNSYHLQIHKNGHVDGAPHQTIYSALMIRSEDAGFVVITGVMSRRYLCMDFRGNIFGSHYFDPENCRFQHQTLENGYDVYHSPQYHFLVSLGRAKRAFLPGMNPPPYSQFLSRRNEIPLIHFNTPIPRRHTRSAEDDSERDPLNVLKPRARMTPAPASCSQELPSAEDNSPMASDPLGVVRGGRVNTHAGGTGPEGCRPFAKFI

[2] = target: T2, HSPG/FGF8b/FGFR1 ternary complexes (Homo sapiens, UniProt P55075); assay: HSPG/FGF8b/FGFR1 mediated cell-cell adhesion assay; type: cell-based; settings: 30 ng/ml FGF8b, increasing peptide concentrations
T2 construct: purchased PeproTech; host or cells: FGF8b was added to A745-CHO-flg-1A-luc cells (FGFR1 IIIc transfected) on a glutaraldehyde-fixed CHO-K1 monolayer (endogenous HSPGs)
T2 sequence (P55075 23-215 isoform P55075-3 limits assumed): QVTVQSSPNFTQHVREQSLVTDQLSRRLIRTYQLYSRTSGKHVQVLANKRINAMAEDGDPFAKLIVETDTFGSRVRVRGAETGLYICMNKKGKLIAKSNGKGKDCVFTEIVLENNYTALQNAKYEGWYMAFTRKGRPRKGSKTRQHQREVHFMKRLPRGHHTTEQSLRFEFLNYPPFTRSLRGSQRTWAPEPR
Method: This assay was performed as described with minor modifications. Briefly, wild-type CHO-K1 cells were seeded in 24-well plates at 150000 cells/cm^2. After 24 h, cell monolayers were washed with PBS and incubated with 3% glutaraldehyde in PBS for 2 h at 4°C. Fixation was stopped with 0.1 M glycine and cells were washed extensively with PBS. Then, A745-CHO-flg-1A-luc cells (50000 cells/cm^2) were added to CHO-K1 monolayers in serum-free medium plus 10 mM EDTA with or without 30 ng/ml FGF8b in the absence or presence of increasing concentrations of the ARPCA or ARPVA peptides. After 2 h of incubation at 37°C, unattached cells were removed by washing twice with PBS, and A745-CHO-flg-1A-luc bound to the CHO-K1 monolayer were solubilized and luciferase activity was quantified. All experiments were performed in triplicate.

FGF3 = target: T3, FGF3 (Homo sapiens, UniProt P11487); assay: SPR analysis of FGF/ARPCA interaction, FGF3; type: binding; settings: immobilized FGF3
T3 sequence (P11487 18-239): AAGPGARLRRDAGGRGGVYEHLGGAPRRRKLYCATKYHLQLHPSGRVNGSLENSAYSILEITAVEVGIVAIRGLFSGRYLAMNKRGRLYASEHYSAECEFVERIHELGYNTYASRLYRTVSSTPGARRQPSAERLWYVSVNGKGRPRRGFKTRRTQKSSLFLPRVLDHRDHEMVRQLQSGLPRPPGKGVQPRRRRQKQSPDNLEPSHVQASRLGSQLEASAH

With Ac-ARPCA-NH2 [ARPCA, Ac-ARPCA-NH2] the “FGFR1 phosphorylation triggered by FGF8b in HUVECs” value [1] was “efficiently impairs FGFR1 phosphorylation”, the “Kd, FGF9” value (FGF9) was “n.b” and the “sprouting activity exerted by FGF8b on HUVEC spheroids” value (HUVEC spheroids; 30 ng/ml FGF8b) was “specifically prevents the pro-angiogenic/sprouting activity”. The “effect on the angiogenic potential of VEGF-A on HUVEC spheroids” value (HUVEC spheroids; 30 ng/ml VEGF-A) was “no effect”, the “CD31-positive tumor vascularization in TRAMP-C2 alginate plugs” value (TRAMP-C2 alginate plugs) was “decrease” and the “FGFR1 activation in TRAMP-C2 alginate plugs” value (TRAMP-C2 alginate plugs) was “impaired FGFR1 activation”. The “tumor cell proliferation rate (Ki67 immunostaining) in TRAMP-C2 alginate plugs” value (TRAMP-C2 alginate plugs) was “decrease”, the “interaction with immobilized FGF23” value (FGF23) was “did not show any interaction” and the “inhibitory activity on FGF8b-mediated cell-cell adhesion (in words)” value [2] was “dose-dependent inhibitory activity”. For the same substance, the “Kd, FGF3” value (FGF3) was “n.b”.
